ChEMBL document CHEMBL4196009, “Novel vitexin-inspired scaffold against leukemia” (Eur J Med Chem, 2018)

Key:
KOPN-8 = test: Antiproliferative activity against human KOPN8 cells after 72 hrs by CelTiter-Glo assay; format: functional, cell-based; conditions: KOPN-8, 72 h
SEM cells = test: Antiproliferative activity against human SEM cells after 72 hrs by CelTiter-Glo assay; format: functional, cell-based
SUP-B15 = test: Antiproliferative activity against human SUP-B15 cells after 72 hrs by CelTiter-Glo assay; format: functional, cell-based; conditions: SUP-B15, 72 h
UoC-B1 = test: Antiproliferative activity against human UOCB1 cells after 72 hrs by CelTiter-Glo assay; format: functional, cell-based; conditions: UoC-B1, 72 h
HepG2 = test: Antiproliferative activity against human HepG2 cells after 72 hrs by CelTiter-Glo assay; format: functional, cell-based; conditions: HepG2, 72 h
BJ = test: Antiproliferative activity against human BJ cells after 72 hrs by CelTiter-Glo assay; format: cell-based

SMILES	EC50 (HepG2)	EC50 (KOPN-8)	EC50 (SEM cells)	EC50 (SUP-B15)	EC50 (UoC-B1)	EC50 (BJ)
COC(=O)c1cc(=O)c2cc(NC(=O)Nc3ccc4c(c3)OCCO4)ccc2[nH]1	> 13.3 µM	> 13.3 µM	> 13.3 µM	> 26.4 µM	> 13.3 µM	> 26.4 µM
COC(=O)c1cc(=O)c2cc(N)ccc2[nH]1	> 33.8 µM	> 33.8 µM	> 33.8 µM	> 67.2 µM	> 33.8 µM	> 67.2 µM
C=CCNC(=O)Nc1ccc2c(c1)c(=O)cc(C(=O)OC)n2C(=O)NCC=C	> 43.3 µM	> 43.3 µM	> 43.3 µM	86.2 µM	> 43.3 µM	86.2 µM
COC(=O)c1cc(=O)c2cc(NC(=O)Nc3cc(OC)c(OC)c(OC)c3)ccc2[nH]1	> 43.3 µM	> 43.3 µM	> 43.3 µM	> 86.2 µM	> 43.3 µM	> 86.2 µM
COC(=O)c1cc(=O)c2cc(NC(=O)NCc3ccccc3)ccc2[nH]1	> 19.5 µM	> 19.5 µM	> 19.5 µM	> 19.5 µM	> 19.5 µM	> 19.5 µM
COC(=O)c1cc(=O)c2cc(NC(=O)Nc3ccc(C(F)(F)F)cc3)ccc2[nH]1	> 6.35 µM	> 6.35 µM	> 6.35 µM	3.27 µM	> 6.35 µM	> 12.6 µM
COC(=O)c1cc(=O)c2cc(NC(=O)Nc3ccc(C(F)(F)F)cc3[N+](=O)[O-])ccc2[nH]1	> 26 µM	> 26 µM	22.5 µM	> 51.7 µM	> 26 µM	> 51.7 µM
COc1ccc(-c2cc(=O)c3c(OC)cc(OC)cc3n2S(=O)(=O)c2c(F)c(F)c(F)c(F)c2F)cc1	> 34.5 µM	> 34.5 µM	3.9 µM	4.1 µM		> 34.5 µM
Nc1ccc2nc(C(=O)O)cc(O)c2c1			29 µM	46 µM		371 µM
COc1ccc(-c2cc(=O)c3c(OC)cc(OC)cc3n2C)cc1		30 µM	26 µM	28 µM		68 µM

Second part, led by results:

EC50 (HepG2)	SMILES	EC50 (KOPN-8)	EC50 (SEM cells)	EC50 (SUP-B15)	EC50 (UoC-B1)	EC50 (BJ)
> 77 µM	COc1cc(OC)c2c(=O)cc(C(=O)Nc3ccc(-n4cccc4)cc3)[nH]c2c1	> 77 µM	> 77 µM	> 77 µM	51.8 µM	> 77 µM
> 31.2 µM	COc1ccc(-c2cc(=O)c3c(OC)cc(OC)cc3[nH]2)cc1	> 31.2 µM	> 31.2 µM	> 62.1 µM	> 31.2 µM	> 62.1 µM
> 27.7 µM	COc1cc(OC)c2c(=O)cc(-c3ccc4c(c3)OCO4)[nH]c2c1	> 27.7 µM	> 27.7 µM	18.8 µM	> 27.7 µM	> 55.2 µM
> 34.5 µM	COC(=O)c1cc(=O)c2c(OC)cc(OC)cc2[nH]1	> 34.5 µM	> 34.5 µM	16.1 µM	> 34.5 µM	> 34.5 µM
> 32.2 µM	COc1cc(OC)c2c(=O)cc(C(=O)Nc3ccc(Oc4cccnc4)cc3)[nH]c2c1	> 32.2 µM	> 32.2 µM	> 32.2 µM	27.7 µM	> 32.2 µM
10.7 µM	COc1cc(OC)c2c(=O)cc(C(=O)Nc3cc(C(F)(F)F)ccc3Oc3ccccc3OC)[nH]c2c1	> 53.4 µM	10.8 µM	> 53.4 µM		> 53.4 µM
> 20 µM	C=CCNC(=O)n1c(-c2ccc(OC)cc2)cc(=O)c2c(OC)cc(OC)cc21	12 µM	12 µM	16 µM		74 µM
> 17.2 µM	COc1ccc(-c2cc(=O)c3c(OC)cc(OC)cc3n2S(=O)(=O)c2ccc(C#N)cc2)cc1	> 17.2 µM	1.3 µM	7.9 µM		> 17.2 µM
> 65.5 µM	COc1ccc(-c2cc(=O)c3c(OC)cc(OC)cc3n2S(=O)(=O)c2ccc(F)cc2)cc1	> 65.5 µM		> 65.5 µM		> 65.5 µM
